Measured values as given in patent US11739124B2, “Acetyl-CoA carbosylase2 antisense oligonucleotides” (OLIPASS CORPORATION, priority 2018, dated 2023).

Tests used:
[1] = system: 10-mer complementary DNA; assay: Binding affinity for complementary DNA by Tm (UV/Vis); conditions: aqueous buffer pH 7.16, 10 mM sodium phosphate, 100 mM NaCl; for Tm Value, 10-mer DNA against C-Terminal: duplex of PNA and 10-mer complementary DNA targeting the C-terminal of PNA; for Tm Value, 10-mer DNA against N-Terminal: duplex of PNA and 10-mer complementary DNA targeting the N-terminal of PNA
Method: The PNA derivatives of Formula I were evaluated for their binding affinity for 10-mer DNAs complementarily targeting either the N-terminal or C-terminal. The binding affinity was assessed by Tm value for the duplex between PNA and 10-mer complementary DNA. The duplex between PNA derivatives and fully complementary DNAs show Tm values too high to be reliably determined in aqueous buffer solution, since the buffer solution tends to boil during the Tm measurement. Tm values for full length PNAs can be predicted and compared based on the Tm value for the duplex between PNA and 10-mer complementary DNA.
Tm values were determined on a UV/Vis spectrometer as follows. A mixed solution of […] PNA oligomer and 4 μM complementary 10-mer DNA in 4 mL aqueous buffer (pH 7.16, 10 mM sodium phosphate, 100 mM NaCl) in 15 mL polypropylene falcon tube was incubated at 90° C. for a few minute and slowly cooled down to ambient temperature. Then the solution was transferred into a 3 mL quartz UV cuvette equipped with an air-tight cap, and the cuvette was mounted on an Agilent 8453 UV/Visible spectrophotometer. The absorbance changes at 260 nm were recorded with increasing the temperature of the cuvette by either 0.5 or 1° C. per minute. From the absorbance vs temperature curve, the temperature showing the largest increase rate in absorbance was read out as the Tm between PNA and 10-mer DNA. The DNAs for Tm measurement were purchased from Bioneer (www.bioneer.com, Dajeon, Republic of Korea) and used without further purification.

[2] = system: human ACC2 mRNA; assay: Inhibition of ACC2 mRNA formation in C2C12 (Real-Time qPCR); assay type: cell-based, mouse; conditions: C2C12 cells, 24 hours; for reduction of ACC2 mRNA compared to control: standardized by GAPDH; for amount of ACC2 mRNA: 100 zM to 1 fM, concentration-dependently
Method: “ASO 1” was evaluated by Real-Time qPCR for its ability to down-regulate the ACC2 mRNA formation in C2C12 as described below.
[Cell Culture & ASO Treatment] C2C12 cells (Cat. No. CRL-1772, ATCC) were maintained in Dulbecco Modified Eagle Medium (DMEM, Cat. No. 12-604F, Lonza) supplemented with 10% Fetal Bovine Serum (Cat. No. 10099-41, GIBCO) and 1% streptomycin/penicillin (Cat. No. 15140-122, GIBCO), which was grown at 37° C. and under 5% CO2 condition. C2C12 cells (2×10^5) stabilized for 24 hours in 60 mm culture dish were incubated for 24 hours with “ASO 1” at 0 (negative control) and 100 zM to 1 fM.
[RNA Extraction & cDNA Synthesis] Total RNA was extracted using RNeasy Mini kit (Qiagen, Cat. No. 714106) according to the manufacturer's instructions from “ASO 1” treated cells and cDNA was prepared from 400 ng of RNA by use of PrimeScript™ 1st strand cDNA Synthesis Kit (Takara, Cat. No. 6110A). To a mixture of 400 ng of RNA, 1 microliter of random hexamer, and 1 microliter of dNTP (10 mM) in PCR tube was added DEPC-treated water to a total volume of 10 microliter, which was reacted at 65° C. for 5 minutes. cDNA was synthesized by adding 10 microliter of PrimeScript RTase to the reaction mixture and reacting at 30° C. for 10 minutes and at 42° C. for 60 minutes, successively.
[Quantitative Real-Time PCR] In order to evaluate the expression level of […] ACC2 mRNA real-time qPCR was performed with synthesized cDNA by use of Tagman probe. The mixture of cDNA, Taqman probe (Thermo, Mm01204651), IQ supermix (BioRad, Cat. No. 170-8862), and nuclease free water in PCR tube was under reaction by use of CFX96 Touch Real-Time system (BioRad) according to the cycle conditions specified as follows: at 95° C. for 3 min (primary denaturation) followed by 50 cycles of 10 sec at 95° C. (denaturation) and 30 sec at 60° C. (annealing and polymerization). Fluorescence intensity was measured at the end of every cycle and the result of PCR was evaluated by the melting curve. After the threshold cycle (Ct) of each gene was standardized by that of GAPDH, the change of Ct was compared and analyzed.
“ASO 6” was evaluated by Real-Time qPCR for its ability to down-regulate the ACC2 mRNA formation in C2C12 as described below.
[Cell Culture & ASO Treatment] C2C12 cells (Cat. No. CRL-1772, ATCC) were maintained in Dulbecco Modified Eagle Medium (DMEM, Cat. No. 12-604F, Lonza) supplemented with 10% Fetal Bovine Serum (Cat. No. 10099-41, GIBCO) and 1% streptomycin/penicillin (Cat. No. 15140-122, GIBCO), which was grown at 37° C. and under 5% CO2 condition. C2C12 cells (2×10^5) stabilized for 24 hours in 60 mm culture dish were incubated for 24 hours with “ASO 6” at 0 (negative control) and 100 zM to 1 fM.
[RNA Extraction & cDNA Synthesis] Total RNA was extracted using RNeasy Mini kit (Qiagen, Cat. No. 714106) according to the manufacturer's instructions from “ASO 6” treated cells and cDNA was prepared from 400 ng of RNA by use of PrimeScript™ 1st strand cDNA Synthesis Kit (Takara, Cat. No. 6110A). To a mixture of 400 ng of RNA, 1 microliter of random hexamer, and 1 microliter of dNTP (10 mM) in PCR tube was added DEPC-treated water to a total volume of 10 microliter, which was reacted at 65° C. for 5 minutes. cDNA was synthesized by adding 10 microliter of PrimeScript RTase to the reaction mixture and reacting at 30° C. for 10 minutes and at 42° C. for 60 minutes, successively.
“ASO 5” was evaluated by the same method as described below.
[Cell Culture & ASO Treatment] C2C12 cells (Cat. No. CRL-1772, ATCC) were maintained in Dulbecco Modified Eagle Medium (DMEM, Cat. No. 12-604F, Lonza) supplemented with 10% Fetal Bovine Serum (Cat. No. 10099-41, GIBCO) and 1% streptomycin/penicillin (Cat. No. 15140-122, GIBCO), which was grown at 37° C. and under 5% CO2 condition. C2C12 cells (2×10^5) stabilized for 24 hours in 60 mm culture dish were incubated for 24 hours with “ASO 5” at 0 (negative control) and 100 zM to 1 fM.
[RNA Extraction & cDNA Synthesis] […]

[3] = system: ACC2 exon 12; assay: Exon skipping of ACC2 mRNA in C2C12 (nested RT-PCR, electrophoresis, Sanger sequencing); assay type: cell-based; conditions: C2C12 cells, 5 hours, 0.1 aM to 1 fM
Method: “ASO 1” was evaluated for its ability to induce the skipping of ACC2 “exon 12” in C2C12 cells as described below.
[Cell Culture & ASO Treatment] C2C12 cells (2×10^5) (Cat. No. CRL-1772, ATCC) were grown in 60 mm culture dish containing DMEM medium (Dulbecco Modified Eagle Medium: DMEM) (Cat. No. 12-604F, Lonza) supplemented with 10% FBS (Fetal Bovine Serum) (Cat. No. 10099-41, GIBCO) and 1% streptomycin/penicillin (Cat. No. 15140-122, GIBCO) under 5% CO2 atmosphere at 37° C. The cells were treated either with nothing (negative control) or with an aliquot of aqueous stock solution of “ASO 1” for 5 hours at 100 zM to 1 fM.
[RNA Extraction & Nested PCR] Total RNA was extracted using RNeasy Mini kit (Qiagen, Cat. No. 714106) according to the manufacturer's instructions from “ASO 1” treated cells and cDNA was prepared from 200 ng of RNA by use of SuperScript™ III One-Step RT-PCR System (Cat. No. 12574-018, Invitrogen). […]
[Identification of Exon Skipping Products Electrophoresis] […] The target bands from “ASO 1” treatment were collected and analyzed by Sanger Sequencing to evaluate exon skipping sequence.

(N→C) Fethoc-AC(1O2)T-GA(5)C-GA(5)A-A(5)TG(5)-GC(1O2)-NH2 [ASO 4]
Tm Value, 10-mer DNA against C-Terminal [1]: 82.01 °C
Tm Value, 10-mer DNA against N-Terminal [1]: 80.01 °C

(N→C) Fethoc-TA(5)C-TG(5)A-C(1O2)GA(5)-AA(5)T-G(5)G-NH2 [ASO 3]
Tm Value, 10-mer DNA against C-Terminal [1]: 78.99 °C
Tm Value, 10-mer DNA against N-Terminal [1]: 76.03 °C

(N→C) Fethoc-CTG(6)-AC(1O2)G-A(5)AA(5)-TG(6)G-C(1O2)C—NH2 [ASO 6]
reduction of ACC2 mRNA compared to control ([2]; 1 aM): 30%
reduction of ACC2 mRNA compared to control ([2]; 1 fM): 50%
amount of ACC2 mRNA [2]: reduced

(N→C) Fethoc-CTG(6)-ACG(6)-AA(5)A-TG(6)G-C(1O2)C—NH2 (CTNACNANATNGNC; PNA with modified bases, Fethoc N-cap, C-amide; PNA modified oligonucleotide; (1)..(14) PNA modified oligonucleotide, human acetyl-CoA carboxylase2 targeted artificial sequence; (1)..(1) Carbamated N-terminal; modified_base (3)..(3) n is a, g, c, or t; modified_base (6)..(6) n is a, g, c, or t; modified_base (8)..(8) n is a, g, c, or t; modified_base (11)..(11) n is a, g, c, or t; modified_base (13)..(13) n is a, g, c, or t) [ASO 1, peptide nucleic acid derivative targeting the 5′ splice site of exon 12 in the human ACC2 pre-mRNA]
Tm Value, 10-mer DNA against C-Terminal [1]: 79.60 °C
Tm Value, 10-mer DNA against N-Terminal [1]: 72.80 °C
Exon skipping (splice variant ACC2 mRNA) [3]: concentration-dependently yielded the splice variant ACC2 mRNA lacking exon 11
reduction of ACC2 mRNA compared to control ([2]; 1 fM): 30%
amount of ACC2 mRNA [2]: reduced

(N→C) Fethoc-CTG(6)-AC(1O2)G-A(5)AA(5)-TG(6)G-NH2 [ASO 5]
reduction of ACC2 mRNA compared to control ([2]; 1 aM): 30%
reduction of ACC2 mRNA compared to control ([2]; 1 fM): 42%
amount of ACC2 mRNA [2]: reduced

(N→C) Fethoc-TA(5)C(1O2)-TGA(5)-CGA(5)-AA(5)T-G(6)GC(1O2)-C—NH2 [ASO 2]
Tm Value, 10-mer DNA against C-Terminal [1]: 82.01 °C
Tm Value, 10-mer DNA against N-Terminal [1]: 82.99 °C
